According to PubChem BioAssay (NCI):
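Five compound concentrations were applied to cells in 96-well plates for 48 hours; endpoints were derived by simple linear interpolation of the resulting dose-response curve. TGI marks complete inhibition of growth.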

Key:
Assay in all cases: inhibition of tumour cell growth, NCI panel, 48 h
[1] = system: SR leukemia
[2] = system: HCT-116 colon
[3] = system: MDA-MB-435
[4] = system: OVCAR-5 ovarian
[5] = system: SK-MEL-2 melanoma
[6] = system: SF-295 CNS
[7] = system: NCI-H522 lung
[8] = system: RPMI-8226 leukemia
[9] = system: HT29 colon
[10] = system: NCI-H226 lung
[11] = system: DU-145 prostate

Compound	TGI [1] [µM]	TGI [2] [µM]	TGI [3] [µM]	TGI [4] [µM]	TGI [5] [µM]	TGI [6] [µM]	TGI [7] [µM]	TGI [8] [µM]	TGI [9] [µM]	TGI [10] [µM]	TGI [11] [µM]
CC(=O)OCC1OC(O/C=C(\CN=[N+]=[N-])C(C)=O)C(OC(C)=O)C(OC(C)=O)C1OC(C)=O (stereo unspecified)	7.69	13.8	26.7	32.9	37.2	> 100	5.08	5.18	27.2		
COC(=O)[C@H](Cc1ccccc1)NP(=O)(O)OCC1C=CC(n2cc(C)c(=O)[nH]c2=O)O1 (stereo partly specified)		> 100	> 100	> 100	> 100	> 100	> 100	> 100	> 100	> 100	> 100
CC(C)OC(=O)[C@@H](O)[C@H](CO)C1=CC([Si](C)(C)c2ccccc2)=CON1	> 100	> 100	> 100	> 100	> 100	> 100		> 100	> 100	> 100	> 100
O=C1c2ccccc2C(=O)c2c(O)ccc(O)c21		> 100		> 100	> 100	> 100	> 100	> 100	> 100		
Cc1cc2nc(N3C(=O)/C(=C/c4ccc(Cl)cc4)N=C3c3ccccc3)sc2cc1C	> 100	53.9	30.7	92.7	89.8	> 100		> 100	63.2		> 100
N#Cc1ccc(Oc2nc3ccc(C(F)(F)F)cc3nc2-c2ccccc2)cc1	9.86	28.6	33.8	26.2	36.9	58.2	32.2		34.5		34
CC(Cc1ccccc1)NC1=NCCO1 (stereo unspecified)	63.5	32.4		> 100	> 100	> 100	> 100	67.3	40.3	> 100	
CC(NC(C#N)CC12CC3CC(CC(C3)C1)C2)c1ccccc1 (stereo unspecified)	> 100	> 100	> 100	> 100		> 100	> 100	44	> 100		> 100
C[C@]1(O)O[C@@H]2OCC[C@@H]2C2=C1C(=O)c1ccccc1C2=O	45.5		19.5	32.4	32	35.8	31.6	20.9	> 100		30.4
Cc1ccc(S(=O)(=O)NC(=O)NC(Cc2ccc(O)c(O)c2)C(=O)O)cc1 (stereo unspecified)		> 100	> 100	> 100	> 100	> 100	> 100	> 100	> 100	> 100	> 100
NC(=O)CC(N=C1C(=O)OC(C(O)CO)C1=NC(CC(N)=O)C(=O)O)C(=O)O (stereo unspecified)	> 100	> 100	> 100		> 100	> 100	> 100	> 100	> 100	> 100	> 100
